{
  "source": "patent US20250057890A1",
  "about": "“FUNCTIONAL FOOD CONTAINING BONITO-DERIVED EXTRACT FOR PREVENTING OR AMELIORATING NEUROPSYCHIATRIC DISORDERS” (MARUHACHI MURAMATSU, INC., priority 2022, published 2025)",
  "key": {"[1]": {"system": "rat brain capillary endothelial cells (RBECs, primary cells)", "assay": "Protein expression of tight-junction-associated molecules (claudin-5 and occludin) in RBECs, western blot", "format": "cell-based", "quoted_text": "First, a 48-well plate was seeded with the RBECs (2×10^5 cells/well·440 μL), and a culture was started in a CO2 incubator (37° C., CO2 level 5%). Next, after 72 hours, the medium in each well was replaced with an evaluation medium prepared by adding the various extracts, and, 24 hours and 72 hours after that, RNA and protein were recovered from the cultured cells a NucleoSpin RNA/Protein kit (Takara Bio) according to the protocol of the kit. The extracted protein was evaluated via western blot, and DNA obtained by reverse transcription of the extracted RNA was evaluated via real-time PCR.\n(§1) First, a 48-well plate was seeded with the RBECs (2×10^5 cells/well·440 μL), and a culture was started in a CO2 incubator (37° C., CO2 level 5%). […] The extracted protein was evaluated via western blot, and DNA obtained by reverse transcription of the extracted RNA was evaluated via real-time PCR (real-time PCR data not shown here).\nas §1"}, "[2]": {"system": "MG6 cells from mouse brain microglia", "assay": "Anti-inflammatory action: TNF-α production in LPS-activated MG6 cells (ELISA)", "format": "cell-based", "settings": "for anti-inflammatory action compared to katsuobushi extract: known components of katsuobushi, each in isolation; for anti-inflammatory activity: MG6 cells, LPS, fractions or single components", "procedure": "MG6 cells from mouse brain microglia were purchased from the RIKEN BioResource Research Center (BRC), and the anti-inflammatory action of various extracts, including from katsuobushi, were assayed (see FIG. 1). First, a 96-well plate was seeded with the MG6 cells (5×10^3 cells/well·90 μL), and a culture was started in a CO2 incubator (37° C., CO2 level 5%). Next the various extracts were added to the wells after 0.5 hours, followed by the addition of lipopolysaccharide (LPS) 1 hour after that to activate the MG6 cells and induce an inflammatory state. After 6 hours, 10 μL of culture supernatant was collected from each well, after which 10 μL of a viable cell counting reagent (WST-8) was added to each well, and absorbance at 450 nm (reference wavelength 630 nm) was measured with a plate reader after 1 hour and 2 hours.\nThe previously collected culture supernatant was diluted 25-fold with a buffer, and the levels of TNF-α, a type of inflammatory cytokine, produced in the culture supernatant was measured via ELISA (using ELISA MAX™ Deluxe Set Mouth TNF-α, a kit manufactured by BioLegend). In the LPS addition test section, anti-inflammatory action was determined to be higher when the TNF-α production levels were more reduced through the prior addition of the various extracts, and lower the less said levels were reduced."}, "[3]": {"system": "microglia in the hippocampus", "settings": "Liang et al., International Journal of Neuroscience, 2022; cited from earlier work"}},
  "data": [
    {"smiles": "N[C@@H](Cc1c[nH]cn1)C(=O)O", "note": "[histidine]", "values": [
      {"measurement": "claudin-5 protein expression", "setting": "[1]; added concentration 0.836 mg/ml, after 24 hours, compared to serum-free medium", "value": "elevated"},
      {"measurement": "expression of tight-junction-associated molecules (claudin-5 and occludin) at the genetic level and the protein level", "setting": "[1]; rat cerebrovascular endothelial cells", "value": "elevated expression"},
      {"measurement": "anti-inflammatory action compared to katsuobushi extract", "setting": "[2]", "value": "none of these substances in isolation showed anti-inflammatory action comparable to katsuobushi extract"}
    ]},
    {"smiles": "O=C(O)CO", "note": "[glycolic acid]", "values": [
      {"measurement": "anti-inflammatory activity", "setting": "[2]", "value": "showed anti-inflammatory activity"}
    ]},
    {"smiles": "NCCC(=O)N[C@@H](Cc1cnc[nH]1)C(=O)O", "note": "[carnosine]", "values": [
      {"measurement": "anti-inflammatory action compared to katsuobushi extract", "setting": "[2]", "value": "none of these substances in isolation showed anti-inflammatory action comparable to katsuobushi extract"}
    ]},
    {"smiles": "O=C(O)CCC(=O)O", "note": "[succinic acid]", "values": [
      {"measurement": "anti-inflammatory activity", "setting": "[2]", "value": "anti-inflammatory activity was observed"}
    ]},
    {"smiles": "O=C[C@H](O)[C@H](O)[C@H](O)COP(=O)(O)O", "note": "[ribose 5-phosphate]", "values": [
      {"measurement": "anti-inflammatory activity", "setting": "[2]", "value": "anti-inflammatory activity was observed"}
    ]},
    {"smiles": "Cn1cncc1C[C@H](NC(=O)CCN)C(=O)O", "note": "[anserine]", "values": [
      {"measurement": "anti-inflammatory action compared to katsuobushi extract", "setting": "[2]", "value": "none of these substances in isolation showed anti-inflammatory action comparable to katsuobushi extract"}
    ]},
    {"smiles": "CC(O)C(=O)O", "note": "(centres unmarked) [lactic acid]", "values": [
      {"measurement": "anti-inflammatory activity (literature)", "setting": "[3]", "value": "already been reported to have anti-inflammatory activity"},
      {"measurement": "anti-inflammatory activity", "setting": "[2]", "value": "showed anti-inflammatory activity"}
    ]},
    {"smiles": "CN(CC(=O)O)C(=N)N", "note": "[creatine]", "values": [
      {"measurement": "anti-inflammatory action compared to katsuobushi extract", "setting": "[2]", "value": "none of these substances in isolation showed anti-inflammatory action comparable to katsuobushi extract"}
    ]},
    {"smiles": "C[N+](C)(C)CC(=O)O", "note": "[betaine]", "values": [
      {"measurement": "anti-inflammatory action compared to katsuobushi extract", "setting": "[2]", "value": "none of these substances in isolation showed anti-inflammatory action comparable to katsuobushi extract"}
    ]},
    {"smiles": "Nc1ncnc2c1ncn2[C@@H]1O[C@H](COP(=O)(O)O)[C@@H](O)[C@H]1O", "note": "[AMP, adenosine 5′-monophosphate]", "values": [
      {"measurement": "anti-inflammatory activity", "setting": "[2]", "value": "anti-inflammatory activity was observed"}
    ]},
    {"smiles": "O=c1[nH]cnc2nc[nH]c12", "note": "[hypoxanthine]", "values": [
      {"measurement": "anti-inflammatory activity", "setting": "[2]", "value": "anti-inflammatory activity was observed"}
    ]}
  ]
}
